# Measured values: patent US8012929B2, “Peptides directed for diagnosis and treatment of amyloid-associated diseases” (Tel Aviv University Future Technology Development L.P., priority 2002, dated 2011)
# Where two headings read alike, the source gives them in different places. Square brackets hold non-standard residues; d marks the D form. Peptide text beside a SMILES is read from it. Aib = CC(C)(N)C(=O)O
# Columns and labels:
# [1] = biological target: T1, β-amyloid1-42 globulomers (Homo sapiens, UniProt P05067); assay: β-amyloid1-42 globulomer formation (6E10 immunoblot, densitometry); assay type: biochemical; settings: 0.13 mM β-amyloid, 1:5 to 1:20 molar ratio, 18 hours at 37° C.
# T1 construct: β-amyloid monomers (0.4 mM) were produced by dissolving the 1-42 peptide in 1,1,1,3,3,3-hexafluoroisopropanol; purchased Bachem (Bubendorf Switzerland)
# Text: […] Solutions were then separated using a 15% Tris-Tricine gel, and transferred to a PVDF membrane, which was screened with a mouse anti β-amyloid monoclonal antibody (6E10; Signet, Dedham, Mass.)
# PC-12 cells = assay: Inhibition of β-amyloid cytotoxicity in PC-12 cells (MTT); assay type: cell-based; settings: 5 μM Aβ1-40, 6.5 μM-150 μM D-Trp-Aib, 24 hr, pre-incubated 21 days
# Description: Prior to incubation with the PC-12 cells, 5× concentrated Aβ1-40 (25 μM) and 5× concentrated D-Trp-Aib were pre-incubated for 21 days.
# Cell viability—The MTT-assay is a very sensitive assay measuring the mitochondrial dehydrogenase activity in viable cells. Following incubation, MTT reduction assay was undertaken according to the method described by Mosmann, [J. Immunol. Meth, 55-63 (1983)], cell viability was calculated by subtracting Aβ1-40 samples absorbance from non-Aβ1-40 controls containing the same D-Trp-Aib concentrations.
# [2] = Serum stability, mouse serum (HPLC); assay type: in vitro ADME; settings: 37° C., 2 and 5 hours
# Text: D-Trp-Aib serum stability—Regardless of administration route, all drugs penetrate and distribute in the body via the blood system. This milieu is based not only on cells and buffering compounds, but also on proteins, carbohydrates, lipid-protein micelles, etc. Serum proteins mainly contain carrier proteins, such as albumin, but also contain many enzymes that might treat the drug as a substrate. Thus, the susceptibility of any drug entering this environment should be evaluated. The stability of D-Trp-Aib spiked into serum was evaluated by analysis of intact sample concentrations at different time points. D-Trp-Aib (250 μg/ml PBS) was incubated with mouse (Harlan Biotech, Israel) or human (obtained from Sheba medical center, Tel Hashomer, Israel) sera or PBS (1:1, 37° C.), and aliquots were analyzed by HPLC analysis at times 0, 2 and 5 hrs. The reaction was stopped and precipitation was effected by the addition of acetonitrile (Baker, Phillipsburg N.J.) and 10% TCA. Following centrifugation (10,000 g, 5 min), Supernatant was transferred to HPLC analysis. Mean amounts of D-Trp-Aib (μg)±s.e.m. were calculated by an internal calibration curve. […]
# hERG potassium channel = biological target: T2, hERG potassium channel (Homo sapiens, UniProt Q12809); assay: Functional hERG assay (patch clamp); assay type: cell-based
# T2 construct: expressed in transfected cells
# Description: Functional hERG assay—Compounds were tested in duplicate in a 3-point dose response curve on HEK cells stably expressing the hERG potassium channel (GenBank Accession No. AAD01946). Potassium current was measured using the patch clamp technique on a Molecular Devices Patch Express 7000. hERG channels were activated by 2 second pulses to +20 mV from a holding potential of −80 mV, and K^+ currents were recorded upon repolarization to −50 mV. This voltage-clamp pulse protocol was performed continuously during the experiment (vehicle control, test compound, washout, and positive control additions). An interpulse interval of 15 seconds allowed recovery from any residual inactivation. Compounds were incubated with cells between 3-8 minutes until the current reached a steady state level. After compounds were tested, they were washed out with continuous perfusion for 3 minutes, followed by application of positive control (10 uM Cisparide).
# CYP450 1A2 = biological target: T3, CYP450 1A2 (Homo sapiens, UniProt P05177); assay: Human CYP450 screen 1A2; assay type: in vitro ADME
# T3 sequence (P05177 1-516): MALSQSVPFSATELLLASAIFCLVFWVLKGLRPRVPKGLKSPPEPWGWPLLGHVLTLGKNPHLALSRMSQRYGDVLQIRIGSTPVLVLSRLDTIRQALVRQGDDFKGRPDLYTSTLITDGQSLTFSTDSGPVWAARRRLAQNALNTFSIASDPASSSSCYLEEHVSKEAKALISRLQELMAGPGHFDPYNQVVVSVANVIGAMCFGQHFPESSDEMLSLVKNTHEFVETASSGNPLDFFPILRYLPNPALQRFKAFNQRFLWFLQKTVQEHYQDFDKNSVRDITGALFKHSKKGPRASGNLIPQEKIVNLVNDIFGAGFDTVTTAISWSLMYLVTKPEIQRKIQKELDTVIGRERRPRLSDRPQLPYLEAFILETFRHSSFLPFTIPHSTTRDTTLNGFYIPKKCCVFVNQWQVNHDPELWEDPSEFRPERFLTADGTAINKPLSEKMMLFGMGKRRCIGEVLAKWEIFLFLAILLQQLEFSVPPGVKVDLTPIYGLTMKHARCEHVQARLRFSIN
# Text: (§1) For the metabolic stability assay, Human cytochrom P450 (CYP450) screens were used. The cytochrom P450 isoenzymes, which are located in the intestines, liver, lung, kidney and brain, are involved in important drug interactions. Drug metabolism occurs in two phases—Phase I involves oxidation, reduction, and hydrolysis. Phase II involves synthesis and conjugation. The CYP 450 isoenzymes are involved in Phase I oxidative reactions. CYP 450 interactions generally result from one of two processes—Induction, where a substance stimulates the synthesis of the enzyme and metabolic capacity is increased, and inhibition, where competitive binding at an enzyme's binding site(s) occurs. A drug with a high affinity for an enzyme will slow the metabolism of any low affinity drug. CYP 3A3/4 is the most abundant CYP 450 isoenzyme in humans and is responsible for the metabolism of the widest range of drugs/substances. (CYP450) screens used were 1A2, 2C9, 2C19, 2D6 and 3A4.
# CYP450 2C9 = CYP450 2C9 (Homo sapiens, UniProt P11712); assay: Human CYP450 screen 2C9; assay type: in vitro ADME
# Text: as §1
# [3] = mouse, in vivo
# Description: Animals were treated following a 4 hour fast, with water ad libitum, and fed 2 hours after administration. Thereafter, animals were sacrificed at different time intervals (5 minutes-8 hours; 3 animals in each group, at every time interval were sacrificed by sodium pentobarbital anesthesia followed by exanguination) and blood (plasma), brain, liver, kidney and pancreas were collected and later analyzed. Plasma and brain tissue samples were analyzed by high-performance liquid chromatography with tandem mass spectrometry (LC-MS/MS).
# In case of brain tissue, only AUC0-4 was calculated. All parameters were calculated using the software PK solutions Version 2.0 for Noncompartmental Pharmacokinetics Data analysis (Summit Research Services, Montrose, Colo.).
# [4] = inhaled or intranasal, 20 mg/kg
# T2 sequence (Q12809 whole entry): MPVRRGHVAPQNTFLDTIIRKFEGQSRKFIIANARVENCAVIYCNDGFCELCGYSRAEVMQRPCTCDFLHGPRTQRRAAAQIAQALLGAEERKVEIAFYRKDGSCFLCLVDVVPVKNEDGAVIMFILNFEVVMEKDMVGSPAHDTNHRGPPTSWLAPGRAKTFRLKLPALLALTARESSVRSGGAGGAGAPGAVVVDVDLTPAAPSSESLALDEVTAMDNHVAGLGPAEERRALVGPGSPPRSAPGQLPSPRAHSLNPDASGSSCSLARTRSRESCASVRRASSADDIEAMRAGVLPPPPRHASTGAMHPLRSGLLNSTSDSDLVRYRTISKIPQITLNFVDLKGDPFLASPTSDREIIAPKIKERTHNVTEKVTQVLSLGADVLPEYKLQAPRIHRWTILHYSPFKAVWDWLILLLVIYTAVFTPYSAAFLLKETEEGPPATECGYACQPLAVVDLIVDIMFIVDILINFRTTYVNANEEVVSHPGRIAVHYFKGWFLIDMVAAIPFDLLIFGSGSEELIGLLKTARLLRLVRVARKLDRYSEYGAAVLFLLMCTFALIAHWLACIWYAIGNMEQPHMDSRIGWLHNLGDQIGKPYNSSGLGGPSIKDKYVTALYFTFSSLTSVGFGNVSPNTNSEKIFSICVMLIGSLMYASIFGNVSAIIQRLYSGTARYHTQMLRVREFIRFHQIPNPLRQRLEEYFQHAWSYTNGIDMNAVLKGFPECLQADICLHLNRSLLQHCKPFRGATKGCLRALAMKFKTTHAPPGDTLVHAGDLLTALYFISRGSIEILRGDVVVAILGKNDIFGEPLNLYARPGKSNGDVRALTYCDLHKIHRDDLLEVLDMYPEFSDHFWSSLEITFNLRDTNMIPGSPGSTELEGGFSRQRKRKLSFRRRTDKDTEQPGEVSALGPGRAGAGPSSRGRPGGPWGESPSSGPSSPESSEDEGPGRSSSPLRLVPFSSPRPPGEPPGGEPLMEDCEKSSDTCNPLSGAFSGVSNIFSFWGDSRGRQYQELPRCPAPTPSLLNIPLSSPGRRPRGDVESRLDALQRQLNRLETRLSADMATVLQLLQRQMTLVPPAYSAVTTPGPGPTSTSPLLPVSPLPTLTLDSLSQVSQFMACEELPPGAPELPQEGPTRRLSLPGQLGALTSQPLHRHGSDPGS
# T1 sequence (P05067 672-713): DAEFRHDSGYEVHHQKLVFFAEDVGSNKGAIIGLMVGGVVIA
# Sequence of CYP450 2C9 (P11712 whole entry): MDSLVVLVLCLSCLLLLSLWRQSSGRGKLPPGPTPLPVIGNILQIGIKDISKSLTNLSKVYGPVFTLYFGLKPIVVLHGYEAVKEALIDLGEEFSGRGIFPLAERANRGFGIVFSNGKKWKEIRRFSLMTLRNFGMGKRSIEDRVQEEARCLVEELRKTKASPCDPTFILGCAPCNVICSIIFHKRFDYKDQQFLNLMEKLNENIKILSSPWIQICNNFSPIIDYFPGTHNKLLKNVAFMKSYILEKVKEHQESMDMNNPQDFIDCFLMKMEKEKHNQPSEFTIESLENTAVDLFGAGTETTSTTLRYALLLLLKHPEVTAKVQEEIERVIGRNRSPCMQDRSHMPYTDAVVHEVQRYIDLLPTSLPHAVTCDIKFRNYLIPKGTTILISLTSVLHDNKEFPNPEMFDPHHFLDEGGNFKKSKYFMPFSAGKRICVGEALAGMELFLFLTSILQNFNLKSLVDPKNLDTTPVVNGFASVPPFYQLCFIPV
structure (smiles),measurement,setting,value
CC(C)(NC(=O)[C@H](N)Cc1c[nH]c2ccccc12)C(=O)O [D-Trp-Aib] (H-[dW]-[Aib]-OH),amount of globulomers (densitometer analysis),[1],about 45 % of the control
same,inhibition of β-amyloid cytotoxicity (MTT viability),PC-12 cells,highly effective in inhibiting the cytotoxicity of β-amyloid
same,D-Trp-Aib concentration after incubation in serum,[2],No decrease
same,effect on potassium channels,hERG potassium channel; HEK cells stably expressing hERG,did not show any effect on potassium channels
same,IC50,"hERG potassium channel; human, HEK cells stably expressing the hERG potassium channel, read-out: IC50 for potassium current",> 50 µM
same,activity in CYP450 screen,CYP450 1A2,None of the results met significance criteria
same,activity in CYP450 screen,CYP450 2C9,None of the results met significance criteria
same,detection in brain tissue (transport through the blood-brain barrier),[3],detected in all the assayed brain tissue samples
same,"exposure of the brain, intranasal compared to oral administration",[3],higher exposure of the brain
same,Cl (area)/kg,[3]; [4],19.1947 mL/min/kg
same,Vd (area)/kg,[3]; [4],2.14474 L/kg
same,AUC (0-t) (obs area),"[3]; iv, 50 mg/kg",2173.55
same,AUCextra,"[3]; iv, 50 mg/kg",0.11%
same,earliest detection post-dosing (rapidly absorbed),[3]; po,15 min
same,AUC (0-t) (obs area),"[3]; po, 50 mg/kg",453.91
same,AUCextra,"[3]; po, 50 mg/kg",0.24%
same,Cl (area)/kg,"[3]; po, 50 mg/kg",20.4857 mL/min/kg
same,Vd (area)/kg,"[3]; po, 50 mg/kg",1.90581 L/kg
